Assay [1] deals with T1, human APJ (Homo sapiens, UniProt P35414).
T1 sequence (P35414 1-380): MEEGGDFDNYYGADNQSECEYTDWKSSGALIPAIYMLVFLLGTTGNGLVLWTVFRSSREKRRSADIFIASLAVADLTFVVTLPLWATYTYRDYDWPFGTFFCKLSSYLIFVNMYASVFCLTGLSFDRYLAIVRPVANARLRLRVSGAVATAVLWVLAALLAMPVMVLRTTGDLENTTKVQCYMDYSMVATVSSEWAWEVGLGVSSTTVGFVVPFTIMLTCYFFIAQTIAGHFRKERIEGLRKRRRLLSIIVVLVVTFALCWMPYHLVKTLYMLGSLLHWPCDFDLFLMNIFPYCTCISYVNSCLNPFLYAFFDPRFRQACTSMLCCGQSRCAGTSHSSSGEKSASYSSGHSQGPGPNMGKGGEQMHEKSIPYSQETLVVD
The assay is described as follows: Calcium mobilization assay for APJ. It counts as cell-based. In general terms: Calcium assays in cells follow changes in intracellular calcium, usually with a dye or a luminescent sensor.

Assay [2] deals with T2, human apelin receptor (Homo sapiens, UniProt P35414).
T2 sequence (P35414 1-380): T1 sequence (P35414 1-380)
The assay is described as follows: Radioligand displacement, [125I]-apelin-13, CHO-K1 cell membrane homogenates. It counts as binding. Background: Loss of bound radioactivity is the signal in a displacement assay; it reports binding, not function.

The target in assay [3] is T3, NTR2 (Rattus norvegicus, UniProt Q63384).
T3 sequence (Q63384 1-416): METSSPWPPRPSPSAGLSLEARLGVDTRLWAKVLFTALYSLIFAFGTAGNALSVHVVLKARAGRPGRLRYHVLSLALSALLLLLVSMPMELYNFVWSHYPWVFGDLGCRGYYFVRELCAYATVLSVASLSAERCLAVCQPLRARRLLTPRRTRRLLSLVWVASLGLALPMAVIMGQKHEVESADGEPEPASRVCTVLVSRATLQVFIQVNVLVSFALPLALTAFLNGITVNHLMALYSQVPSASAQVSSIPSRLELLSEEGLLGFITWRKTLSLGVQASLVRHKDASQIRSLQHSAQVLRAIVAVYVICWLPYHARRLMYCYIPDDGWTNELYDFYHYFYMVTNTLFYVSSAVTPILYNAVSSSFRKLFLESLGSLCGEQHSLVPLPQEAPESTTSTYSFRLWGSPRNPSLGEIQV
The experiment in a line: Calcium mobilization assay for NTR2. It counts as cell-based.

Assay [4] concerns the target NTR1 (Rattus norvegicus, UniProt P20789). The assay is described as follows: Calcium mobilization assay for NTR1. The format is cell-based.
Assay [5] addresses T3, NTR2. The following applies: read-out: NTR2 EC50 (off-target); cited from earlier work.
For assay [6], the target named is NTR2 receptor. The settings on record: read-out: NTR2 Ki (off-target); cited from earlier work.

Counter-ions that a name gives are not always drawn. Like-named read-outs stand apart in the source and are kept apart here.

Sequence of NTR1 (P20789 whole entry): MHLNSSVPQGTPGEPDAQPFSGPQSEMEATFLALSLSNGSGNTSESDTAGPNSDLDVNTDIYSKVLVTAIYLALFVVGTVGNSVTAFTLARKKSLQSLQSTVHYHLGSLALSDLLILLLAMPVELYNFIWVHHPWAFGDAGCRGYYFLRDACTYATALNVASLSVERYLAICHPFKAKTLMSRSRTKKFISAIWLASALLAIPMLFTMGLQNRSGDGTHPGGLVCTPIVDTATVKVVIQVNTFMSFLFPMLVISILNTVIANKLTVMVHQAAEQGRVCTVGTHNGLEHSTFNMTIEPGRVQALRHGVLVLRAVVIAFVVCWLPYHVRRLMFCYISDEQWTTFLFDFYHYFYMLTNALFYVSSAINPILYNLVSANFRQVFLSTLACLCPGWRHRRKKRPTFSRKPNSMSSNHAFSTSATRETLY

Turning to `COC(=O)[C@@H](NC(=O)c1cc(-c2c(OC)cccc2OC)n(-c2ccc(F)cc2)n1)C1CCCCC1` [Compound 4, (S)-Methyl 2-cyclohexyl-2-(5-(2,6-dimethoxyphenyl)-1-(4-fluorophenyl)-1H-pyrazole-3-carboxamido)acetate], the “APJ agonist activity” value in assay [1] (calcium mobilization) was “did not possess activity”.
As to `COc1cccc(O)c1-c1cc(C(=O)N[C@H](C(=O)O)C2CCCCC2)nn1-c1ccc(F)cc1` [Compound 13, 2-Cyclohexyl-2-(1-(4-fluorophenyl)-5-(2-hydroxy-6-methoxyphenyl)-1H-pyrazole-3-carboxamido)acetic acid], the “APJ agonist activity” value in assay [1] (calcium mobilization) is reported as “loss of potency”.
The same measure, in the same setting: with `COc1cccc(OC)c1-c1cc(C(=O)N[C@H](C(=O)O)C2CCCCC2)n(-c2ccc(F)cc2)n1` [Compound 1a, (S)-2-Cyclohexyl-2-(3-(2,6-dimethoxyphenyl)-1-(4-fluorophenyl)-1H-pyrazole-5-carboxamido)acetic acid] the entry was “significantly reduce activity”.
Still for that read-out and setting: with `O=C(N[C@H](C(=O)O)C1CCCCC1)c1cc(-c2c(O)cccc2O)n(-c2ccc(F)cc2)n1` [Compound 12, (S)-2-Cyclohexyl-2-(5-(2,6-dihydroxyphenyl)-1-(4-fluorophenyl)-1H-pyrazole-3-carboxamido)acetic acid] the entry was “complete loss of agonist potency”; with `COc1cccc(OC)c1-c1cc(C(=O)N[C@@H](CCC(N)=O)C(=O)O)nn1-c1ccc(F)cc1` [Compound 16, (S)-5-Amino-2-(5-(2,6-dimethoxyphenyl)-1-(4-fluorophenyl)-1H-pyrazole-3-carboxamido)-5-oxopentanoic acid], “not tolerated”; with `COc1cccc(OC)c1-c1cc(C(=O)N[C@@H](CCCCNC(=O)OC(C)(C)C)C(=O)O)nn1-c1ccc(F)cc1` [Compound 17, (S)-6-((Tert-butoxycarbonyl)amino)-2-(5-(2,6-dimethoxyphenyl)-1-(4-fluorophenyl)-1H-pyrazole-3-carboxamido)hexanoic acid], “not tolerated”.
Still for that read-out and setting: with `CCCCc1nc(Cl)c(CO)n1Cc1ccc(-c2ccccc2-c2nn[nH]n2)cc1` [losartan, reference compound] the entry was “none of these analogs possessed agonist activity”; with `COc1cccc(OC)c1-c1cc(C(=O)N[C@H](C(=O)NO)C2CCCCC2)nn1-c1ccc(F)cc1` [Compound 9, (S)-N-(1-Cyclohexyl-2-(hydroxyamino)-2-oxoethyl)-5-(2,6-dimethoxyphenyl)-1-(4-fluorophenyl)-1H-pyrazole-3-carboxamide], “not tolerated”; with `Cc1cc(C(=O)N[C@H](C(=O)O)C2CCCCC2)nn1-c1ccc(F)cc1` [Compound 15, (S)-2-Cyclohexyl-2-(1-(4-fluorophenyl)-5-methyl-1H-pyrazole-3-carboxamido)acetic acid], “inactive”.
Consider `COc1cccc(OC)c1-c1cc(C(=O)N[C@H](C(N)=O)C2CCCCC2)nn1-c1ccc(F)cc1` [Compound 6, (S)-N-(2-Amino-1-cyclohexyl-2-oxoethyl)-5-(2,6-dimethoxyphenyl)-1-(4-fluorophenyl)-1H-pyrazole-3-carboxamide], for which the “APJ agonist activity” value in assay [1] (calcium mobilization) is listed as “devoid of activity”.
The same measure, in the same setting: with `COc1cccc(OC)c1-c1cc(C(=O)N[C@@H](CCCCN)C(=O)O)nn1-c1ccc(F)cc1` [Compound 18, (S)-6-Amino-2-(5-(2,6-dimethoxyphenyl)-1-(4-fluorophenyl)-1H-pyrazole-3-carboxamido)hexanoic acid trifluoroacetate] the entry was “not tolerated”.
Consider `COc1cccc(OC)c1-c1cc(C(=O)N[C@@H](CC(=O)O)C2CCCCC2)nn1-c1ccc(F)cc1` [Compound 21, (S)-3-Cyclohexyl-3-(5-(2,6-dimethoxyphenyl)-1-(4-fluorophenyl)-1H-pyrazole-3-carboxamido)propanoic acid], for which the 50% effective concentration (EC50) was 9.9 ± 2.6 µM in assay [1] and roughly 345 nM in assay [3]. In assay [2], this compound displayed an inhibitory constant (Ki) of 1400 ± 200 nM. In addition, in assay [3], the “NTR2 functional behaviour” value is on record as “partial agonists at NTR2”. Further, in assay [3] (read-out: NTR2 Emax), the Emax was 57%. Also, in assay [4], the “NTR1 activity as agonist or antagonist” value was “Neither compound had any significant NTR1 activity”.
Regarding `COc1cccc(OC)c1-c1cc(C(=O)N[C@H](C(=O)N(C)C)C2CCCCC2)nn1-c1ccc(F)cc1` [Compound 7, (S)-N-(1-Cyclohexyl-2-(dimethylamino)-2-oxoethyl)-5-(2,6-dimethoxyphenyl)-1-(4-fluorophenyl)-1H-pyrazole-3-carboxamide], the “APJ agonist activity” value in assay [1] (calcium mobilization) is listed as “devoid of activity”.
The same measure, in the same setting: under `COc1cccc(OC)c1-c1cc(C(=O)N[C@H](C(=O)NCc2ccccc2)C2CCCCC2)nn1-c1ccc(F)cc1` [Compound 8, (S)-N-(2-(Benzylamino)-1-cyclohexyl-2-oxoethyl)-5-(2,6-dimethoxyphenyl)-1-(4-fluorophenyl)-1H-pyrazole-3-carboxamide] stands “devoid of activity”; under `COc1cccc(OC)c1-c1cc(C(=O)N[C@H](C(=O)NCC(=O)O)C2CCCCC2)nn1-c1ccc(F)cc1` [Compound 11, (S)-2-(2-Cyclohexyl-2-(5-(2,6-dimethoxyphenyl)-1-(4-fluorophenyl)-1H-pyrazole-3-carboxamido)acetamido)acetic acid], “inactive”; under `CCCCC(=O)N(Cc1ccc(-c2ccccc2-c2nnn[nH]2)cc1)[C@H](C(=O)O)C(C)C` [valsartan, reference compound], “none of these analogs possessed agonist activity”.
Turning to `COc1cccc(OC)c1-c1cc(C(=O)N[C@H](C(=O)O)C2CCCCC2)nn1-c1ccc(F)cc1` [Compound 1], the EC50 is 21.5 ± 5 µM in assay [1] (read-out: functional EC50 at APJ, calcium mobilization) and 271 nM in assay [5]. Also, in assay [2], the “displacement of 125I radiolabeled pyr-apelin-13” value is 100%. Moreover, in assay [2] (radioligand displacement studies), the “mode of binding at APJ” value was “competitive orthosteric ligand of APJ”. In addition, in assay [6], the Ki was 622 nM.
In the case of `COc1cccc(OC)c1-c1cc(C(=O)NCC2CCCCC2)nn1-c1ccc(F)cc1` [Compound 5, N-(Cyclohexylmethyl)-5-(2,6-dimethoxyphenyl)-1-(4-fluorophenyl)-1H-pyrazole-3-carboxamide], the “APJ agonist activity” value in assay [1] (calcium mobilization) was “did not possess activity”.
Same read-out and setting: under `COC(=O)CNC(=O)[C@@H](NC(=O)c1cc(-c2c(OC)cccc2OC)n(-c2ccc(F)cc2)n1)C1CCCCC1` [Compound 10, (S)-Methyl 2-(2-cyclohexyl-2-(5-(2,6-dimethoxyphenyl)-1-(4-fluorophenyl)-1H-pyrazole-3-carboxamido)acetamido)acetate] stands “inactive”.
The same measure, in the same setting: with `COc1cccc(OC)c1-c1cc(C(=O)N[C@@H](C(=O)O)C2CCCCC2)nn1-c1ccc(F)cc1` [Compound 3, (R)-2-Cyclohexyl-2-(5-(2,6-dimethoxyphenyl)-1-(4-fluorophenyl)-1H-pyrazole-3-carboxamido)acetic acid] the entry was “significantly reduce activity”; with `COc1cccc(OC)c1-c1cc(C(=O)N[C@@H](CC(C)C)C(=O)O)nn1-c1ccc(F)cc1` [Compound 19, (S)-2-(5-(2,6-Dimethoxyphenyl)-1-(4-fluorophenyl)-1H-pyrazole-3-carboxamido)-4-methylpentanoic acid], “did not retain APJ potency”.
Turning to `COc1cccc(OC)c1-c1cc(C(=O)N[C@@H](CCC2CCCCC2)CC(=O)O)nn1-c1ccc(F)cc1` [Compound 22, (S)-5-Cyclohexyl-3-(5-(2,6-dimethoxyphenyl)-1-(4-fluorophenyl)-1H-pyrazole-3-carboxamido)pentanoic acid], the “APJ agonist activity” value in assay [1] (calcium mobilization) is given as “full agonist”. Also, in assay [3], the “NTR2 functional behaviour” value is reported as “partial agonists at NTR2”. Moreover, in assay [4], the “NTR1 activity as agonist or antagonist” value was “Neither compound had any significant NTR1 activity”.

Usually EC50 stands for the concentration at which the effect is half-maximal. One may read the Ki as the equilibrium dissociation constant of an inhibitor or competing ligand from its target. The term Emax denotes the size of the effect at its maximum, as opposed to the concentration needed.

(Values after article PMC4955518 (Bioorganic & medicinal chemistry, 2016).)
